The structures appear in SMILES notation. Structures can show the parent of a compound that is named as a salt.

For the first data set, the target named is T1, human p38 kinase alpha (Homo sapiens, UniProt Q16539).
T1 construct: The coding region of the human p38a cDNA was obtained by PCR-amplification from RNA isolated from the human monocyte cell line THP.1; GST (N); made in house; host or cells: E. coli DH10B
T1 sequence (Q16539 whole entry): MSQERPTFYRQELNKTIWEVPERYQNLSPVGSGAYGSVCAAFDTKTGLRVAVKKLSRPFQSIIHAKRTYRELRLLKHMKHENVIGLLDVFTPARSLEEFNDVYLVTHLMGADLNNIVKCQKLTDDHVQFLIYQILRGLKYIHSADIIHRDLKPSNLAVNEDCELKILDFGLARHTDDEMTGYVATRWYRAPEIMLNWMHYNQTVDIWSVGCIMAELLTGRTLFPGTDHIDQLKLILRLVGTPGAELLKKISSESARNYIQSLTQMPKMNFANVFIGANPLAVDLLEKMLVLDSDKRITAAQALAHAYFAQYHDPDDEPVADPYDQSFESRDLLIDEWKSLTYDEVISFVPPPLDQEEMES
Put plainly: p38 kinase in vitro assay, phosphorylation of biotinylated PHAS-I with gamma 32P-ATP. Format: biochemical. The conditions noted are these: activated human p38 kinase alpha, PHAS-I substrate, 50 μM unlabeled ATP; read-out: p38 kinase IC50. In outline:
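MKK6-activated human p38α phosphorylates biotinylated PHAS-I with γ-32P-ATP in 25 mM HEPES pH 7.5, 10 mM Mg acetate, 50 μM unlabeled ATP, 1% DMSO, 30 °C for 1 h or overnight. Compounds at 100–0.001 μM (10-fold steps, triplicate); substrate captured on streptavidin filter plates and counted by scintillation.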
Regarding `Fc1ccc(-c2n[nH]c(-c3ccncc3)c2-c2ccncc2)cc1` [Example A-23, 4-[3-(4-fluorophenyl)-4-(4-pyridinyl)-1H-pyrazol-5-yl]pyridine], the IC50 was 1.5 µM.

Test system in another data set: not given
Assay: not given
Details: not given
`CC(=O)n1ccc(-c2c(-c3ccncc3)c(-c3ccc(F)cc3)nn2CCO)cc1=O` [Example A-195, 1-acetyl-4-[3-(4-fluorophenyl)-1-(2-hydroxyethyl)-4-(4-pyridinyl)-1H-pyrazol-5-yl]-2(1H)-pyridinone] registered a melting point of 220 to 221 °C.
In turn, `Fc1cccc(-c2[nH]ncc2-c2ccncn2)c1` [Example A-311, 4-[3-(3-fluorophenyl)-1H-pyrazol-4-yl]pyrimidine] displayed a melting point of 168.58 °C.
Consider `CN1CCN(c2n[nH]c(-c3cccs3)c2-c2ccncc2)CC1` [Example A-426], for which the melting point was 199.7 °C (dec.).
As to `CN1CCN(c2[nH]nc(-c3ccc(F)cc3)c2-c2ccncc2)CC1` (hydrate or solvate) [Example A-317, 1-[5-(4-fluorophenyl)-4-(4-pyridinyl)-1H-pyrazol-3-yl]-4-methylpiperazine, dihydrate], the melting point was 262 to 264 °C.
On to `CCc1cccc(-c2[nH]nc(C)c2-c2ccncc2)c1` [Example A-185, 4-[3-(3-ethylphenyl)-5-methyl-1H-pyrazol-4-yl]pyridine], for which the melting point amounted to 189.25 °C.
In turn, `Fc1ccc(-c2[nH]nc(C(F)(F)F)c2-c2ccncc2)cc1` [Example A-190] returned a melting point of 281.94 °C.
The compound `Fc1ccc(-c2n[nH]cc2-c2ccnc(NCc3ccccc3)n2)cc1` [Example A-303, 4-[3-(4-fluorophenyl)-1H-pyrazol-4-yl]-N-(phenylmethyl)-2-pyrimidinamine] returned a melting point of 216 to 217 °C.
In turn, `O=C(Cc1ccncc1)c1ccc(Cl)cc1` [Example A-431] returned a melting point of 95.5 to 97.3 °C.
`COC(=O)N1CCN(c2[nH]nc(-c3ccc(Cl)cc3)c2-c2ccncc2)CC1` (hydrate or solvate) [Example A-319, methyl 4-[5-(4-chlorophenyl)-4-(4-pyridinyl)-1H-pyrazol-3-yl]-1-piperazinecarboxylate, monohydrate] registered a melting point of 264 to 265 °C.
As to `Fc1ccc(-c2[nH]nc(N3CCNCC3)c2-c2ccncc2)cc1` (as salt: hydrochloride) [Example A-172, 1-[5-(4-fluorophenyl)-4-(4-pyridinyl)-1H-pyrazol-3-yl]piperazine trihydrochloride], the melting point was in the range of 204 to 206 °C.
The same measure, in the same setting: the same measure for `Fc1ccc(-c2[nH]ncc2-c2ccncn2)cc1` [Example A-312, 4-[3-(4-fluorophenyl)-1H-pyrazol-4-yl]pyrimidine]: 191.47 °C; for `CNC(=O)c1cc(-c2cn[nH]c2-c2ccc(F)cc2)ccn1` [Example A-225, 4-[3-(4-fluorophenyl)-1H-pyrazol-4-yl]-N-methyl-2-pyridinecarboxamide]: 88 to 89 °C.
Same read-out and setting: with `CNc1nccc(-c2c[nH]nc2-c2ccc(F)cc2)n1` [Example A-302, 4-[3-(4-fluorophenyl)-1H-pyrazol-4-yl]-N-methyl-2-pyrimidinamine] the figure was 217 to 218 °C; with `Clc1ccc(-c2n[nH]c(OCCN3CCOCC3)c2-c2ccncc2)cc1` [Example A-440], 198.9 to 199.9 °C.
`Cc1n[nH]c(-c2c(F)cccc2F)c1-c1ccncc1` [Example A-184, 4-[3-(2,6-difluorophenyl)-5-methyl-1H-pyrazol-4-yl]pyridine]: the melting point stood at 236.67 °C.
For `COC(=O)c1cc(-c2c[nH]nc2-c2ccc(F)cc2)ccn1` [Example A-224, Methyl 4-[3-(4-fluorophenyl)-1H-pyrazol-4-yl]-2-pyridinecarboxylate], the melting point was 239 to 241 °C.
Consider `CCc1cccc(-c2[nH]nc(CC)c2-c2ccncc2)c1` [Example A-187, 4-[3-ethyl-5-(3-ethylphenyl)-1H-pyrazol-4-yl]pyridine], for which the melting point was determined as 192.66 °C.
As to `Fc1ccc(-c2n[nH]c(-c3ccncc3)c2-c2ccncc2)cc1` [Example A-23, 4-[3-(4-fluorophenyl)-4-(4-pyridinyl)-1H-pyrazol-5-yl]pyridine], the melting point amounted to 304 °C.
On the same count and under the same terms, the same measure for `NNc1nccc(-c2cn[nH]c2-c2ccc(F)cc2)n1` [Example A-300, 4-[3-(4-fluorophenyl)-1H-pyrazol-4-yl]-2(1H)-pyrimidinone hydrazone]: 149 to 150 °C; for `Cc1ccc(S(=O)(=O)Nc2[nH]nc(-c3ccc(Cl)cc3)c2-c2ccncc2)cc1` [Example A-484]: 284.3 to 284.4 °C.
Regarding `Fc1ccc(-c2[nH]ncc2-c2ccnc(NC3CC3)n2)cc1` [Example A-304, N-cyclopropyl-4-[3-(4-fluorophenyl)-1H-pyrazol-4-yl]-2-pyrimidinamine], the melting point lay in the range of 203 to 204 °C.
Compound `CC(C)(C)OC(=O)N1CCN(c2n[nH]c(-c3ccc(F)cc3)c2-c2ccncc2)CC1` [Example A-171, 1,1-dimethylethyl 4-[5-(4-fluorophenyl)-4-(4-pyridinyl)-1H-pyrazol-3-yl]-1-piperazinecarboxylate] returned a melting point of 243 to 244 °C.
For `OCCn1nc(-c2ccc(F)cc2)c(-c2ccncc2)c1-c1cnc[nH]1` [Example A-198, 3-(4-fluorophenyl)-5-(4-imidazolyl)-4-(4-pyridinyl)-1H-pyrazole-1-ethanol], the melting point was in the range of 227 to 228 °C.
Compound `COc1cc(-c2c(-c3ccncc3)c(-c3ccc(F)cc3)nn2CCO)ccn1` [Example A-193, 3-(4-fluorophenyl)-5-(2-methoxy-4-pyridinyl)-4-(4-pyridinyl)-1H-pyrazole-1-ethanol] returned a melting point of 168 to 169 °C.
With `COc1ccc(CNc2nccc(-c3cn[nH]c3-c3ccc(F)cc3)n2)cc1` [Example A-305, 4-[3-(4-fluorophenyl)-1H-pyrazol-4-yl]-N-[(4-methoxyphenyl)methyl)-2-pyrimidinamine], the melting point fell in the range of 183 to 185 °C.
As to `CCn1nc(-c2ccc(Cl)cc2)c(-c2ccncc2)c1C` [Example A-206, 4-[3-(4-chlorophenyl)-1-ethyl-5-methyl-1H-pyrazol-4-yl]pyridine], the melting point amounted to 164.36 °C.
`Clc1ccc(-c2[nH]nc(N3CCNCC3)c2-c2ccncc2)cc1` [Example A-328, 1-[5-(4-chlorophenyl)-4-(4-pyridinyl)-1H-pyrazol-3-yl]piperazine] registered a melting point of 264 to 265 °C.
Compound `Clc1cccc(-c2n[nH]cc2-c2ccnc(NCc3ccccc3)c2)c1` [Example A-220, 4-[3-(3-chlorophenyl)-1H-pyrazol-4-yl]-N-(phenylmethyl)-2-pyridinamine] displayed a melting point of 179 to 180 °C.
Regarding `CSC(SC)=C(C(=O)c1ccc(F)cc1)c1ccncc1` [Example A-432], the melting point fell in the range of 80.2 to 82.1 °C.
In the case of `C#CCn1nc(N2CCNCC2)c(-c2ccncc2)c1-c1ccc(Cl)cc1` (as salt: hydrochloride) (hydrate or solvate) [Example A-318, 1-[5-(4-chlorophenyl)-4-(4-pyridinyl)-1-(2-propynyl)-1H-pyrazol-3-yl]piperazine, trihydrochloride monohydrate], the melting point is 231 to 233 °C (dec.).
In the case of `O=C(O)C1CC1c1c(-c2ccncc2)c(-c2ccc(F)cc2)nn1CCO` (stereo not drawn) [Example A-197, 2-[3-(4-fluorophenyl)-1-(2-hydroxyethyl)-4-(4-pyridinyl)-1H-pyrazol-5-yl]cyclopropanecarboxylic acid], the melting point was in the range of 253 to 255 °C.
`Clc1cccc(-c2n[nH]cc2-c2ccnc(NCCc3ccccc3)c2)c1` [Example A-221, 4-[3-(3-chlorophenyl)-1H-pyrazol-4-yl]-N-(phenylethyl)-2-pyridinamine] displayed a melting point of 185 to 186 °C.
The compound `OCCn1nc(-c2ccc(F)cc2)c(-c2ccncc2)c1C1CC1` [Example A-192, 5-cyclopropyl-3-(4-fluorophenyl)-4-(4-pyridinyl)-1H-pyrazole-1-ethanol] displayed a melting point of 155 to 157 °C.
Same read-out and setting: the same measure for `CN(C)c1nccc(-c2cn[nH]c2-c2ccc(F)cc2)n1` [Example A-301, 4-[3-(4-fluorophenyl)-1H-pyrazol-4-yl]-N,N-dimethyl-2-pyrimidinamine]: 155 to 156 °C; for `Cc1c(-c2ccncc2)c(-c2ccc(Cl)cc2)nn1C` [Example A-204, 4-[3-(4-chlorophenyl)-1,5-dimethyl-1H-pyrazol-4-yl]pyridine]: 82 to 88 °C; for `CCOC(=O)Nc1nccc(-c2cn[nH]c2-c2ccc(F)cc2)n1` [Example A-308, Ethyl [4-[3-(4-fluorophenyl)-1H-pyrazol-4-yl]-2-pyrimidinyl]carbamate]: 163 to 165 °C.
`CN1CCN(c2n[nH]c(-c3ccc(F)cc3)c2-c2ccncc2)CC1.O.O` (hydrate or solvate) yielded a melting point of 238 to 240 °C.
The compound `CN1CCN(c2n[nH]c(-c3cccc(C(F)(F)F)c3)c2-c2ccncc2)CC1` [Example A-424] yielded a melting point of 212.6 to 213.7 °C.
As to `CN1CCC(N(C)c2[nH]nc(-c3ccc(Cl)cc3)c2-c2ccncc2)CC1` (hydrate or solvate), the melting point lay within 260 to 261 °C.
`CSC(SC)=C(C(=O)c1ccc(Cl)cc1)c1ccncc1` [Example A-433] yielded a melting point of 87.6 to 88.2 °C.
`O=c1cc(-c2c(-c3ccncc3)c(-c3ccc(F)cc3)nn2CCO)cc[nH]1` [Example A-194, 4-[3-(4-fluorophenyl)-1-(2-hydroxyethyl)-4-(4-pyridinyl)-1H-pyrazol-5-yl]-2(1H)-pyridinone] registered a melting point of 250 to 251 °C.

The record behind these values is patent publication US6525059B1, “Substituted pyrazoles as p38 kinase inhibitors” (G. D. Searle & Company, priority 1998, dated 2003).
